Laboratory results taken from patent publication US20140242609A1, “Diagnosis and treatment of kidney stones, methods and compositions therefor” (Washington University, priority 2013, published 2014).
Entries after “also recorded” stand apart in the source; their conditions may differ.

Key:
Assay type in all cases: in vivo
pri-miR-9-1 = pri-miR-9-1 transcript levels in TALH of treated mouse kidneys (real-time PCR); conditions: for changes in pri-miR-9-1 levels: by 8 hrs
Description: (§1) Total RNA including microRNA was extracted using Trizol (Invitrogen). Cellular mRNA was reverse transcribed using the Superscript-III kit (Invitrogen), followed by real-time PCR amplification using SYBR Green PCR Master Mix (Bio-Rad) and Eppendorf Realplex2S system. The design of claudin-14 primers was described above. The design of pri-miRNA primers was according to Ma et al., (2010). Results were expressed as 2^−ΔCt values with ΔCT=Ctgene−Ctβ-actin.
To measure the transcriptional level for microRNA gene in vivo in the kidney, the inventors designed primers (see Methods; Table 2) to amplify the pri-miRNA molecule, the original transcript for microRNA gene that had not yet been subjected to any nuclear or cellular processing. Because both miR-9 and miR-374 had broader localization profiles along the nephron, the inventors isolated the TALH tubular cells for pri-miRNA analyses from the mouse kidney described elsewhere in this study. WT mice (strain: C57BL/6) were treated with NPS2143 or cinacalcet as described for claudin-14 analyses and assayed for pri-miRNA levels in isolated TALH cells at 2 hrs and 8 hrs respectively. […] NPS2143 and cinacalcet also profoundly regulated pri-miR-374. […] The expression levels of miR-9-1 and miR-374 genes were both inversely correlated with that of claudin-14 gene in the kidney, compatible with the silencing role of microRNA in regulating its target gene.
(§2) Total RNA including microRNA was extracted using Trizol (Invitrogen). Cellular mRNA was reverse transcribed using the Superscript-III kit (Invitrogen), followed by real-time PCR amplification using SYBR Green PCR Master Mix (Bio-Rad) and Eppendorf Realplex2S system. The design of claudin-14 primers was described before by Gong et al., 2012. The design of pri-miRNA primers and ChIP primers was according to Gong et al., 2013. Results were expressed as 2^−ΔCt values with ΔCT=Ctgene−Ctβ-actin.
as §2, with “by Gong. Y.,” for “by Gong”, “primers” for “primers and ChIP primers”, “to Ma. L.,” for “to Gong”, “al., 2010.” for “al., 2013.”

claudin-14 protein = claudin-14 protein levels in freshly isolated TALH cells pooled from treated mouse kidneys (western blot); conditions: for claudin-14 protein levels, change: 30 mg/kg BW−1 per day for 6 days, 24 hrs following the last treatment
Experimental: (§3) An immunomagnetic separation method was used to isolate the TAL cells from the mouse kidney (Hou et al., 2009). Antibodies against the TAL cell specific surface antigen, Tamm-Horsfall protein (THP), were coated onto the paramagnetic polystyrene beads (Dynabeads M-280; Dynal), allowing immunoprecipitation of the TAL cells from collagenase digested mouse kidneys. The isolated cells were plated in DMEM medium supplemented with 10% FBS, penicillin/streptomycin, and 1 mM sodium pyruvate for 16 hours, followed by immediate transfection with NFAT or antagomirs.
Because of the low abundance of claudin-14 proteins in the whole kidney, an immunomagnetic separation method was adapted to freshly isolate the TALH tubular cells from the kidneys of each treated mouse, pooled the TALH cells from all animals (N=5) within each treatment group and quantified claudin-14 protein levels by western blot. […] Claudin-14 proteins were immunostained in mouse kidneys to investigate changes in TJ localization.
as §3, with “TALH” for “TAL”, “kidney. (Gong Y,” for “kidney (Hou”, “al. 2012 and Gong Y, et al. 2013)” for “al., 2009).”, “protein,” for “protein (THP),”, “treatment.” for “transfection with NFAT or antagomirs.”
as §3, with “TALH” for “TAL”, “kidney. (Gong, Y.,” for “kidney (Hou”, “2012; Hou, J., et al., 2009)” for “2009).”, “(THP; a GPI-anchored protein that is exclusively expressed in the TALH and the early part of the DCT,) (Stricklett, P. K., et al., 2003; Bernascone, I., et al., 2010)” for “(THP),”, “NFAT.” for “NFAT or antagomirs.”
Changes in claudin-14 protein levels were captured as early as 2 hrs following a single oral dose of NPS2143 or cinacalcet (30 mg/kg BW^−1) treatment. Because of the low abundance of claudin-14 proteins in the whole kidney, the inventors adapted an immunomagnetic separation method to freshly isolate the TALH tubular cells from the kidneys of each treated mouse (described in Gong, Y., et al., 2012 and Hou, J., et al. 2009; see Methods), pooled the TALH cells from all animals (N=5) within each treatment group, isolated plasma membrane proteins and quantified claudin-14 protein levels by western blot. […] Although claudins were previously considered static molecules sequestered in the tight junction, several recent studies have found similarly rapid turnover rate of less than 60 min for claudins (see Discussion). Claudin-14 proteins were inummuostained in mouse kidneys to investigate changes in TJ localization.

pri-miR-9-2 = pri-miR-9-2 transcript levels in TALH of treated mouse kidneys (real-time PCR); conditions: 30 mg/kg BW−1; 2 hrs or 8 hrs
Description: as §1
(§4) To measure the transcriptional level for microRNA gene in vivo in the kidney, the inventors designed primers (see Methods; Table 2) to amplify the pri-miRNA molecule, the original transcript for microRNA gene that had not yet been subjected to any nuclear or cellular processing. Because both miR-9 and miR-374 had broader localization profiles along the nephron, the inventors isolated the TALH tubular cells for pri-miRNA analyses from the mouse kidney described elsewhere in this study. WT mice (strain: C57BL/6) were treated with NPS2143 or cinacalcet as described for claudin-14 analyses and assayed for pri-miRNA levels in isolated TALH cells at 2 hrs and 8 hrs respectively. […] NPS2143 and cinacalcet also profoundly regulated pri-miR-374. […]
(§5) Total RNA including microRNA was extracted using Trizol (Invitrogen). […] Results were expressed as 2^−ΔCt values with ΔCT=Ctgene−Ctβ-actin.

pri-miR-9-3 = pri-miR-9-3 transcript levels in TALH of treated mouse kidneys (real-time PCR); conditions: 30 mg/kg BW−1; 2 hrs or 8 hrs
Description: as §1, §4, §5

[1] = cyclosporine-A pre-treated animals, 30 mg/kg BW−1, 2 hrs

Compound	transcriptional levels of miR-9-1 gene (pri-miR-9-1), increase (pri-miR-9-1; 25 mg/kg BW−1, 4 hrs) [fold]	CLDN14 protein levels, reduction (claudin-14 protein; 25 mg/kg BW−1, 4 hr) [%]	pri-miR-9-2 level, change (pri-miR-9-2)	pri-miR-9-1 transcript level, decrease (pri-miR-9-1; 30 mg/kg BW−1, 2 hrs) [%]	changes in pri-miR-9-1 levels (pri-miR-9-1; 30 mg/kg BW−1)	pri-miR-9-1 level, reduction (pri-miR-9-1; TPTX mice, 30 mg/kg BW−1, 2 hrs) [%]	pri-miR-9-1 mRNA levels, decrease (pri-miR-9-1; [1]) [%]	claudin-14 protein levels, change (claudin-14 protein)	claudin-14 protein levels, upregulation (claudin-14 protein; single oral dose 30 mg/kg BW−1, 2 hrs) [fold]	pri-miR-9-3 level, change (pri-miR-9-3)	pri-miR-9-1 level, increase (pri-miR-9-1; TPTX mice, 30 mg/kg BW−1) [%]	pri-miR-9-1 mRNA levels, change (pri-miR-9-1; [1])	pri-miR-9-1 transcript level, increase (pri-miR-9-1; single-dose 30 mg/kg BW−1, 2 hrs) [fold]	claudin-14 protein levels, percent of the vehicle treatment (claudin-14 protein; single oral dose 30 mg/kg BW−1, 2 hrs, densitometric scale) [%]
O=C(CCCCCCC(=O)Nc1ccccc1)NO [SAHA, Suberanilohydroxamic acid]	1.49	60	–	–	–	–	–	–	–	–	–	–	–	–
C[C@@H](NCCCc1cccc(C(F)(F)F)c1)c1cccc2ccccc12 [cinacalcet]	–	–	Neither pri-miR-9-2 (FIG. 12B) nor pri-miR-9-3 level (FIG. 12C) was significantly altered; also recorded: Neither pri-miR-9-2 (FIG. 29B) nor pri-miR-9-3 level (FIG. 29C) was significantly altered	88	dissipated completely	55	34	Neither NPS2143 nor cinacalcet caused changes	2.98	Neither pri-miR-9-2 (FIG. 12B) nor pri-miR-9-3 level (FIG. 12C) was significantly altered; also recorded: Neither pri-miR-9-2 (FIG. 29B) nor pri-miR-9-3 level (FIG. 29C) was significantly altered	–	–	–	–
CC(C)(Cc1ccc2ccccc2c1)NC[C@@H](O)COc1cccc(Cl)c1C#N [NPS2143]	–	–	Neither pri-miR-9-2 (FIG. 12B) nor pri-miR-9-3 level (FIG. 12C) was significantly altered; also recorded: Neither pri-miR-9-2 (FIG. 29B) nor pri-miR-9-3 level (FIG. 29C) was significantly altered	–	dissipated completely	–	–	Neither NPS2143 nor cinacalcet caused changes	–	Neither pri-miR-9-2 (FIG. 12B) nor pri-miR-9-3 level (FIG. 12C) was significantly altered; also recorded: Neither pri-miR-9-2 (FIG. 29B) nor pri-miR-9-3 level (FIG. 29C) was significantly altered	19	failed to elicit any significant change	7.65	32
